In PubChem BioAssay (NCI):
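48-hour exposure; five concentrations; linearly interpolated endpoints. TGI marks complete inhibition of growth.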

How the values were obtained:
Test in all cases: NCI tumour cell line growth inhibition, 48 h
SK-OV-3 ovarian = tested on: SK-OV-3 ovarian
A498 renal = tested on: A498 renal
MALME-3M melanoma = tested on: MALME-3M melanoma
HL-60(TB) leukemia = tested on: HL-60(TB) leukemia
UO-31 renal = tested on: UO-31 renal
T-47D breast = tested on: T-47D breast
SK-MEL-2 melanoma = tested on: SK-MEL-2 melanoma
MDA-N = tested on: MDA-N
NCI-H522 lung = tested on: NCI-H522 lung
MDA-MB-231 breast = tested on: MDA-MB-231 breast
DU-145 prostate = tested on: DU-145 prostate
OVCAR-4 ovarian = tested on: OVCAR-4 ovarian
U251 CNS = tested on: U251 CNS
M19-MEL melanoma = tested on: M19-MEL melanoma
HS 578T breast = tested on: HS 578T breast
M14 melanoma = tested on: M14 melanoma
KM12 colon = tested on: KM12 colon
SF-268 CNS = tested on: SF-268 CNS
EKVX NSCLC = tested on: EKVX NSCLC
SR leukemia = tested on: SR leukemia

Row | Compound | TGI (SK-OV-3 ovarian) [µM] | TGI (A498 renal) [µM] | TGI (MALME-3M melanoma) [µM] | TGI (HL-60(TB) leukemia) [µM] | TGI (UO-31 renal) [µM] | TGI (T-47D breast) [µM] | TGI (SK-MEL-2 melanoma) [µM] | TGI (MDA-N) [µM] | TGI (NCI-H522 lung) [µM] | TGI (MDA-MB-231 breast) [µM] | TGI (DU-145 prostate) [µM] | TGI (OVCAR-4 ovarian) [µM] | TGI (U251 CNS) [µM] | TGI (M19-MEL melanoma) [µM] | TGI (HS 578T breast) [µM] | TGI (M14 melanoma) [µM] | TGI (KM12 colon) [µM] | TGI (SF-268 CNS) [µM] | TGI (EKVX NSCLC) [µM] | TGI (SR leukemia) [µM]
1 | COc1cc(/C=C2/C(=O)N(C(=O)c3ccccc3O)N=C2C)cc(OC)c1OC | > 100 | 0.7 | > 100 | > 60.3 | 6.81 | > 100 | > 29.4 | > 100 | 33.4 | > 100 | > 100 | > 100 | > 100 | > 100 | > 100 | > 100 | > 100 | > 100 | > 100 | 
2 | O=c1[nH]n2c(=O)cc[nH]c2c1-c1nnns1 | > 100 | > 100 | > 100 | > 100 | > 100 |  | > 100 |  | > 100 |  |  | > 100 | > 100 | > 100 |  | > 100 | > 100 | > 100 | > 100 | > 100
3 | COc1ccc(C(C#N)NNC(=O)c2ccccc2O)cc1OC (centres undefined) | > 100 |  | > 100 | 30.2 | 2.2 |  | 78.2 |  | 30.1 |  |  | > 100 | > 100 | > 100 |  | 46.7 | > 100 | > 100 |  | > 100
4 | OCc1ccc2[n+](c1)CCC1c3ccccc3NC21 (centres undefined) | > 300 |  | > 300 | > 300 |  |  | > 300 |  | > 300 |  |  |  | > 300 | > 300 |  |  | > 300 | > 300 | > 300 | > 300
5 | COC(=O)C(CCC#N)(CCC#N)C(=O)OC | > 100 |  | > 100 | > 100 | > 100 |  |  |  | > 100 |  |  |  | > 100 | > 100 |  | > 100 | > 100 | > 100 | > 100 | > 100
6 | COc1ccc(C2Oc3c(cc(O)c(OC)c3C)[C@@H]2C)cc1OC (some centres undefined) | > 100 | > 100 | > 100 | > 100 | > 100 |  | > 100 |  | > 100 |  |  | > 100 | > 100 | > 100 |  | > 100 | > 100 | > 100 | > 100 | 
7 | Cn1cc2ccccc2c1-c1nc(N)nc(F)n1 | > 100 | 53.5 | > 100 | > 100 | > 100 |  | > 100 |  | > 100 |  |  | > 100 | > 100 | > 100 |  | > 100 | > 100 | > 100 | > 100 | > 100
